Usually zone of inhibition stands for the extent of the growth-free halo in a diffusion test.

The structures appear in SMILES notation. Values after ≈ are worked out from the molar mass of the structure shown.

The record followed here is patent publication US4348264A, “Photocatalyzed process for producing carbapenams and carbapen-2-ems” (Pfizer Inc., priority 1981, dated 1982).

Holding throughout (type): cell-based
One assay deals with Enterobacter cloacae. The experiment in a line: Serial dilution-tube method, MIC. To be noted: Enterobacter cloacae; brain heart infusion broth; read-out: Minimum Inhibitory Concentration.
For another assay, the system named is Pseudomonas aeruginosa. Put plainly: Serial dilution-tube method, MIC. Particulars: Pseudomonas aeruginosa; brain heart infusion broth; read-out: Minimum Inhibitory Concentration.
Another assay concerns Proteus morgani. The experiment in a line: Serial dilution-tube method, MIC. To be noted: brain heart infusion broth; read-out: Minimum Inhibitory Concentration.
A further assay deals with Citrobacter diversus. The experiment in a line: Serial dilution-tube method, MIC. To be noted: Citrobacter koseri; brain heart infusion broth; read-out: Minimum Inhibitory Concentration.
For the next assay, the system named is Klebsiella pneumoniae. Put plainly: Serial dilution-tube method, MIC. Particulars: Klebsiella pneumoniae; brain heart infusion broth; read-out: Minimum Inhibitory Concentration.
Assay [1] relates to Staphylococcus aureus. The experiment in a line: Serial dilution-tube method, MIC. Particulars: Staphylococcus aureus; brain heart infusion broth; read-out: Minimum Inhibitory Concentration.
The subject of another assay is Serratia marcescens. The experiment in a line: Serial dilution-tube method, MIC. Particulars: Serratia marcescens; brain heart infusion broth; read-out: Minimum Inhibitory Concentration.
Assay [2] concerns Escherichia coli (Antibiotic Resistant). The experiment in a line: Serial dilution-tube method, MIC. Particulars: Escherichia coli, brain heart infusion broth, read-out: Minimum Inhibitory Concentration.
In assay [3] the test system is Staphylococcus aureus (Antibiotic Resistant). The experiment in a line: Serial dilution-tube method, MIC. More on the design: key to synergistic effect with ampicillin: Shows a synergistic effect when tested 1:1 with ampicillin. Particulars: for MIC: Staphylococcus aureus, brain heart infusion broth, read-out: Minimum Inhibitory Concentration; for synergistic effect with ampicillin: tested 1:1 with ampicillin.

The next assay concerns Bacillus subtilis. Put plainly: Standard disc-plate method, zone of inhibition. To be noted: Bacillus subtilis; 25 microgram discs. From the text: (§1) The utility of the various compounds as intermediates to other compounds of the present invention will be evident from the preceding discussion. The antibacterial activity of these compounds, reflecting their utility in the control of susceptible bacterial infections in man and animals, as animal feed additives for promotion of growth, or as preservatives of materials biodegraded by susceptible microorganisms, is best measured by the standard disc-plate method routinely employed in clinical laboratories for determining the sensitivity of microorganisms to antimicrobial substances. Sensitivity discs are prepared by dipping a standard 6.25 mm. paper disc into a solution of the compound to be tested (conc. 1 mg./ml.) in a volatile solvent (e.g. methylene chloride) and the disc dried, producing discs containing approximately 25 microg. of the compound. The discs are placed on the surface of agar growth media seeded with the test microorganism, previously plated into Petri dishes. The plates are incubated overnight at 35°-37° C. Activity of the test compound is reflected by a zone of inhibition of bacterial growth around the test disc. The diameter of this zone provides a quantitative measure of the activity of the antibacterial substance. The activity of various compounds of the present invention is summarized in Table I. For comparison, results obtained with 10 microg. discs of ampicillin and penicillin G are included as positive controls.

The test system of assay [4] is Escherichia coli. The experiment in a line: Standard disc-plate method, zone of inhibition. Particulars: Escherichia coli, 25 microgram discs.
From the text: as §1

The next assay concerns Micrococcus luteus. The experiment in a line: Standard disc-plate method, zone of inhibition. To be noted: Micrococcus luteus; 25 microgram discs.
From the text: as §1

In a further assay the test system is Vibrio percolans. Put plainly: Standard disc-plate method, zone of inhibition. Particulars: Comamonas terrigena, 25 microgram discs.
From the text: as §1

The subject of assay [5] is Staphylococcus aureus (Antibiotic Resistant). The experiment in a line: Standard disc-plate method, zone of inhibition. Particulars: Staphylococcus aureus; 25 microgram discs; antibiotic resistant.
From the text: as §1

Assay [6] deals with Staphylococcus aureus. Put plainly: Standard disc-plate method, zone of inhibition. Particulars: Staphylococcus aureus; 25 microgram discs.
From the text: as §1

Assay [7] concerns Escherichia coli. The experiment in a line: Serial dilution-tube method, MIC. To be noted: Escherichia coli; brain heart infusion broth; read-out: Minimum Inhibitory Concentration.

In the case of `CC1=C(C(=O)OCOC(=O)C(C)(C)C)N2C(=O)CC2C1=O` (stereo not drawn) [H H POM CH3 O II, Pivaloyloxymethyl 2-Methyl-1-oxocarbapen-2-em-3-carboxylate], the MIC in the assay on Enterobacter cloacae, with Pseudomonas aeruginosa, in the assay with Proteus morgani, in the assay with Citrobacter diversus, with Klebsiella pneumoniae and with Staphylococcus aureus [1] was over 200 µg/mL throughout. Besides, the MIC (in the assay on Serratia marcescens; in [2]; in assay [3]; in the assay on Escherichia coli [7]) was over 200 µg/mL throughout. Moreover, the zone of inhibition at 25 µg/disc amounted to 37 mm in the assay with Bacillus subtilis; 0 mm with Escherichia coli [4]; 26 mm with Micrococcus luteus; 14 mm in the assay on Vibrio percolans; 18 mm in assay [5]; 22 mm with Staphylococcus aureus [6].

Regarding `CC(=O)OC1C(C)C(C(=O)OCOC(=O)C(C)(C)C)N2C(=O)C(NC(=O)COc3ccccc3)C12` (stereo not drawn) [PMA H POM CH3 H OAc I, Pivaloyloxymethyl 1-Acetoxy-2-methyl-6-(2-phenoxyacetamido)carbapenam-3-carboxylate], the MIC with Enterobacter cloacae, in the assay with Pseudomonas aeruginosa, with Proteus morgani, in the assay on Citrobacter diversus, in the assay with Klebsiella pneumoniae and with Staphylococcus aureus [1] was over 200 µg/mL in each case. Also, the MIC (in the assay with Serratia marcescens; in [2]; in assay [3]; with Escherichia coli [7]) was over 200 µg/mL in each case. Besides, the zone of inhibition at 25 µg/disc came to 16 mm in the assay on Bacillus subtilis; 0 mm in the assay with Escherichia coli [4]; 0 mm in the assay with Micrococcus luteus; 0 mm in assay [5]; 11 mm in the assay on Staphylococcus aureus [6].

Turning to `CC1C(O)C2C(NC(=O)COc3ccccc3)C(=O)N2C1C(=O)OCOC(=O)C(C)(C)C` (stereo not drawn) [PMA H POM CH3 H OH I, Pivaloyloxymethyl 1-Hydroxy-2-methyl-6-(2-phenoxyacetamido)carbapenam-3-carboxylate], the MIC in the assay on Enterobacter cloacae is over 200 µg/mL; in the assay with Pseudomonas aeruginosa, over 200 µg/mL; in the assay on Proteus morgani, over 200 µg/mL; with Citrobacter diversus, over 200 µg/mL; with Klebsiella pneumoniae, over 200 µg/mL; with Staphylococcus aureus [1], 25 µg/mL (≈ 55.7 µM). Further, the MIC in the assay on Serratia marcescens was over 200 µg/mL; in assay [2], over 200 µg/mL; in assay [3], 200 µg/mL; in the assay on Escherichia coli [7], over 200 µg/mL. Also, in [3], the “synergistic effect with ampicillin” value is reported as “a”. For the same compound, the zone of inhibition at 25 µg/disc is 23 mm with Bacillus subtilis; 0 mm with Escherichia coli [4]; 14 mm with Micrococcus luteus; 17 mm in assay [5]; 20 mm in the assay on Staphylococcus aureus [6].

`COC1(NC(=O)COc2ccccc2)C(=O)N2C(C(=O)OCOC(=O)C(C)(C)C)C(C)C(O)C21` (stereo not drawn) [PMA OMe POM CH3 H OH I, pivaloyloxymethyl 1-hydroxy-6-methoxy-2-methyl-6-(2-phenoxyacetamido)carbapenam-3-carboxylate]: the MIC in the assay with Enterobacter cloacae, with Pseudomonas aeruginosa, in the assay with Proteus morgani, in the assay with Citrobacter diversus, with Klebsiella pneumoniae and in the assay on Staphylococcus aureus [1] was over 200 µg/mL each time. Besides, the MIC (in the assay with Serratia marcescens; in assay [2]; in assay [3]; with Escherichia coli [7]) was over 200 µg/mL in each case. Also, the zone of inhibition at 25 µg/disc stood at 11 mm in the assay on Bacillus subtilis; 0 mm in the assay on Escherichia coli [4]; 0 mm in the assay on Vibrio percolans; 0 mm in assay [5]; 23 mm in the assay with Staphylococcus aureus [6].

On to `COC1(NC(=O)COc2ccccc2)C(=O)N2C(C(=O)OCOC(=O)C(C)(C)C)C(C)C(=O)C21` (stereo not drawn) [PMA OMe POM CH3 O I, Pivaloyloxymethyl 6-Methoxy-2-methyl-1-oxo-6-(2-phenoxyacetamido)carbapenam-3-carboxylate], for which the MIC in the assay on Enterobacter cloacae, in the assay with Pseudomonas aeruginosa, in the assay with Proteus morgani, in the assay with Citrobacter diversus, in the assay on Klebsiella pneumoniae and in the assay on Staphylococcus aureus [1] was over 200 µg/mL throughout. Besides, the MIC (with Serratia marcescens; in assay [2]; in [3]; in the assay with Escherichia coli [7]) was over 200 µg/mL throughout. Also, the “synergistic effect with ampicillin” value in [3] is “a”. For the same compound, the zone of inhibition at 25 µg/disc in the assay with Bacillus subtilis was determined as 11 mm; in the assay with Escherichia coli [4], 0 mm; with Vibrio percolans it was 0 mm; in assay [5], 0 mm; in the assay with Staphylococcus aureus [6] it was 0 mm.
